Reference: patent US20260151379A1, “SALT TYPE AND CRYSTAL FORM OF COMPLEMENT FACTOR B INHIBITOR, AND PREPARATION METHOD THEREFOR AND APPLICATION THEREOF” (SHANGHAI MEIYUE BIOTECH DEVELOPMENT CO., LTD., priority 2022, published 2026)

Assays:
[1] = Solubility tests in water, SGF, FaSSIF, FeSSIF at 37° C. (Example 5); assay type: physicochemical; details: for solubility at 1 h / solubility at 24 h: 37 °C, thermodynamic from solid; for solubility at 1 h: read-out: Solubility (mg/mL) (1 h); for solubility at 24 h: read-out: Solubility (mg/mL) (24 h)
Protocol: Experimental procedures: 30 mg (in water) or 15 mg of a sample was weighed out and added to a 4 mL vial; 3 mL of a medium to be tested (water, SGF, FaSSIF, or FeSSIF) was added; the mixture was continuously stirred at 37° C.; 0.5 mL of the sample was separately collected at 1 h and 24 h; centrifugation was performed at 12000 rpm for 10 min; the supernatant was diluted with 50% aqueous acetonitrile solution to an appropriate multiple; and the concentration of the supernatant was determined.
(§1) Control and linearity: 10 mg of the compound of formula I was weighed out and added to a 50 mL volumetric flask, 50% aqueous acetonitrile solution was added for dissolution, and the mixture was diluted to volume. Two parts were prepared in parallel. The control of the compound of formula I was taken and diluted with 50% aqueous acetonitrile solution to 100 μg/mL, 50 μg/mL, and 10 μg/mL, 5 μL of the sample was injected, and a standard curve was plotted.

[2] = Liver microsomal stability experiment (rat); assay type: in vitro ADME; details: rat liver microsomes
Protocol: (§2) A 0.1 M solution of dipotassium phosphate in distilled water (containing 1 mM ethylenediaminetetraacetic acid) was taken. Then the pH was adjusted to 7.4 with a 0.1 M solution of potassium dihydrogen phosphate in distilled water (containing 1 mM ethylenediaminetetraacetic acid).
(§3) • Rat: SD Rat Liver Microsomes, Cat. No.: LM-DS-02M, RILD Research Institute for Liver Diseases (Shanghai) Co. Ltd. • Monkey: Cynomolgus Monkey Liver Microsomes, Cat. No.: LM-SXH-02M, RILD Research Institute for Liver Diseases (Shanghai) Co. Ltd. • Human: Pooled Human Liver Microsomes (Mongolian), Cat. No.: LM-R-02M, RILD Research Institute for Liver Diseases (Shanghai) Co. Ltd.
(§4) A 10 mM solution of each of the control compound and test compounds was prepared in DMSO. Then 10 μL of the solution was added to 190 μL of acetonitrile to form a 0.5 mM stock solution. 1.5 μL of the 0.5 mM stock solution was measured out, and […] of 20 mg/mL liver microsomes and 479.75 μL of the buffer were added. (The actual preparation amount can be adjusted according to use).
(§5) 10 mg/mL of reduced coenzyme II (NADPH) was prepared in the buffer. A 96-well plate was placed on ice. Wells corresponding to different time points (0, 10, 30, 60 and 90 min, Non-NADPH) were set for each compound. […] The mixture was analyzed on an AB SCIEX ExionLC-Triple Quad 5500 high-performance liquid chromatograph-mass spectrometer. […]

[3] = Liver microsomal stability experiment (monkey); assay type: in vitro ADME, cynomolgus monkey; details: monkey liver microsomes
Protocol: as §2, §3, §4, §5

[4] = PK of single intragastric administration to cynomolgus monkeys (plasma concentration); assay type: in vivo; details: intragastric 3 mpk and 30 mpk, same dose as control compound
Protocol: Cynomolgus monkeys were used. Each group consisted of 3 cynomolgus monkeys, and they were given the control compound at 3 mpk, the control compound at 30 mpk, the compound of formula I at 3 mpk, and the compound of formula I at 30 mpk by intragastric administration. Blood was collected at different time points and used for drug concentration analysis and complement activity detection. The compound concentration in plasma was determined by LC-MS/MS. The complement activity in serum was determined using a wieslab assay (Svar Life Science AB, COMPL AP330 RUO) kit, Normal Human Serum (Complement Technology, NHS).

[5] = Solubility tests of compound of formula I, mixture of crystal forms A and B, and crystal form C at 37° C. (Example 13); assay type: physicochemical; details: 37° C.; for solubility at 1 h / solubility at 24 h: thermodynamic from solid; for solubility at 1 h: read-out: Solubility at 1 h; for solubility at 24 h: read-out: Solubility at 24 h
Protocol: An appropriate amount of a test sample was weighed out and added to a vial; 3 mL of a medium (water, SGF, FaSSIF, FeSSIF, or the like) was added; the mixture was stirred at 37° C.; […]; centrifugation was performed at 12000 rpm for 10 min; the supernatant was diluted with 50% aqueous acetonitrile solution to an appropriate multiple; and the concentration of the supernatant was determined.
as §1, with “control” for “control of the compound of formula I”

[6] = SGF, simulated gastric fluid, SGF

COc1cc(C)c2[nH]ccc2c1CN1CC[C@H](OCC2CC2)C[C@H]1c1ccc(C(=O)O)cc1 [Compound of formula I]
Final pH ([1]; FaSSIF): 6.44 | Solubility (mg/mL) (1 h) ([1]; FaSSIF): 0.22 mg/mL | Solubility (mg/mL) (24 h) ([1]; FaSSIF): 0.19 mg/mL | solubility at 1 h ([1]; FeSSIF, fessif, FeSSIF): 0.37 mg/mL | solubility at 24 h ([1]; FeSSIF, fessif, FeSSIF): 0.35 mg/mL | Final pH ([1]; FessIF): 5.03 | Final pH ([1]; SGF): 1.74 | solubility at 1 h [1, 6]: 5.51 mg/mL | solubility at 24 h [1, 6]: 5.48 mg/mL | Final pH ([1]; Water): 8.73 | Solubility (mg/mL) (1 h) ([1]; Water): 0.37 mg/mL | Solubility (mg/mL) (24 h) ([1]; Water): 0.31 mg/mL | MMS (rat) Remaining (T = 90 min) [2]: 89.14% | MMS (monkey) Remaining (T = 90 min) [3]: 93.32% | Mean plasma concentration (in words, FIG. 21) [4]: significantly higher mean plasma concentration than that of the control compound | Final pH ([5]; FaSSIF): 6.44 | Final pH ([5]; FessIF): 5.03 | Final pH ([5]; SGF): 1.74 | Final pH ([5]; Water): 8.73 | solubility at 1 h ([5]; simulated gastric fluid, SGF): 5.51 mg/mL | solubility at 24 h ([5]; simulated gastric fluid, SGF): 5.48 mg/mL | solubility at 1 h ([5]; FassIF): 0.22 mg/mL | solubility at 24 h ([5]; FassIF): 0.19 mg/mL | solubility at 1 h ([5]; FessIF): 0.37 mg/mL | solubility at 24 h ([5]; FessIF): 0.35 mg/mL | solubility at 1 h ([5]; Water): 0.37 mg/mL | solubility at 24 h ([5]; Water): 0.31 mg/mL
